The record followed here is PMC7044277 (Nature Communications, 2020).

What all share (assay type): cell-based
Assay [1] concerns the target 320 non-olfactory GPCRs (Homo sapiens, UniProt P25025).
The target of assay [2] is T1, 320 non-olfactory GPCRs (Homo sapiens, UniProt P35368).
T1 construct: expressed in transfected cells; host or cells: HTLA cells

Assay [3] addresses T2, 320 non-olfactory GPCRs (Homo sapiens, UniProt P51679).
T2 construct: expressed in transfected cells; host or cells: HTLA cells

The target of assay [4] is 320 non-olfactory GPCRs (Homo sapiens, UniProt Q96PE1).

Values joined by “and” are separate entries in the source; they are usually repeats but may differ in a detail not shown here. Equal entries are not always repeated.
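Further: compound tested at 1 µM final concentration.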

320 non-olfactory GPCRs (Homo sapiens, UniProt Q96PE1), sequence (Q96PE1 34-1338): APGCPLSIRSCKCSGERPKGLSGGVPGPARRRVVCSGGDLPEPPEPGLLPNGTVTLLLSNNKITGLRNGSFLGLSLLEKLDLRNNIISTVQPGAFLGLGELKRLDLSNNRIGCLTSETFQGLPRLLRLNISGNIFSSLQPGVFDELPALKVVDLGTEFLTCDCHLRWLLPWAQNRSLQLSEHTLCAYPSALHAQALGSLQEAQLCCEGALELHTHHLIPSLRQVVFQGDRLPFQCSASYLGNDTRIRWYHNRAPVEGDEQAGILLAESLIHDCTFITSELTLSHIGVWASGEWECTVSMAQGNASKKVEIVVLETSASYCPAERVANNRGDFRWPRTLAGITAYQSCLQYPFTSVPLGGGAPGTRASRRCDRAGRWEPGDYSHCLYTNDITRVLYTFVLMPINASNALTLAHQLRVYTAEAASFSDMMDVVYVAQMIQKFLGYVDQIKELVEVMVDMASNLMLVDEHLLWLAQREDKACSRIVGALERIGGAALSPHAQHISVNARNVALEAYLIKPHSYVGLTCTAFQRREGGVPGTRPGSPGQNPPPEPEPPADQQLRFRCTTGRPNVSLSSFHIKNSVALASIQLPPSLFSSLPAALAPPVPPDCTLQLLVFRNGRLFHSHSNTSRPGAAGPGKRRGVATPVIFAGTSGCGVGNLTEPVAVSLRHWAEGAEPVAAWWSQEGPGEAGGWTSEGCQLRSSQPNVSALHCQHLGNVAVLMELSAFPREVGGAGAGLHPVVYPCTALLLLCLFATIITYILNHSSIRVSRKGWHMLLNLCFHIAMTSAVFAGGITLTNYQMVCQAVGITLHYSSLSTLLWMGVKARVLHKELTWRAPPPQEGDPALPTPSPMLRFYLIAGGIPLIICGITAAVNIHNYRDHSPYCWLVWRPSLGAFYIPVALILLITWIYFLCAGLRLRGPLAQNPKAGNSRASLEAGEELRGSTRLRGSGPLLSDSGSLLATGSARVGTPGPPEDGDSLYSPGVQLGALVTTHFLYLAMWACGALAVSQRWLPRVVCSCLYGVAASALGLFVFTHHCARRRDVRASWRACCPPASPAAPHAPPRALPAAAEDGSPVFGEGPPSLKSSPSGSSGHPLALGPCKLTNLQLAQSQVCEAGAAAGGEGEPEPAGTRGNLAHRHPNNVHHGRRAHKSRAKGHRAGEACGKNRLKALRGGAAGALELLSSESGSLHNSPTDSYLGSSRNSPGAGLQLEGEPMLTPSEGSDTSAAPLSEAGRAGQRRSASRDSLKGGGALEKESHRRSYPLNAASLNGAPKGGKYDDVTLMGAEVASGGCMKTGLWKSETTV
T2 sequence (P51679 whole entry): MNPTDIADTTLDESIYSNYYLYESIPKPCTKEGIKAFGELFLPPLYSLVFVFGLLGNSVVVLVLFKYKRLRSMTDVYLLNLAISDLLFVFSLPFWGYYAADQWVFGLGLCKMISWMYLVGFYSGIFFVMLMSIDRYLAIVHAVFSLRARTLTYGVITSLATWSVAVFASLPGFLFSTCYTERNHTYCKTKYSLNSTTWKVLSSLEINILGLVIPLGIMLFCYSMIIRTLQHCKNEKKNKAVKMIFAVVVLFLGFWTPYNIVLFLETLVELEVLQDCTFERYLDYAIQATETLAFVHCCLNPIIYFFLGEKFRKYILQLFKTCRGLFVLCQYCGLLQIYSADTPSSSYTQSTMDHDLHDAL
T1 sequence (P35368 whole entry): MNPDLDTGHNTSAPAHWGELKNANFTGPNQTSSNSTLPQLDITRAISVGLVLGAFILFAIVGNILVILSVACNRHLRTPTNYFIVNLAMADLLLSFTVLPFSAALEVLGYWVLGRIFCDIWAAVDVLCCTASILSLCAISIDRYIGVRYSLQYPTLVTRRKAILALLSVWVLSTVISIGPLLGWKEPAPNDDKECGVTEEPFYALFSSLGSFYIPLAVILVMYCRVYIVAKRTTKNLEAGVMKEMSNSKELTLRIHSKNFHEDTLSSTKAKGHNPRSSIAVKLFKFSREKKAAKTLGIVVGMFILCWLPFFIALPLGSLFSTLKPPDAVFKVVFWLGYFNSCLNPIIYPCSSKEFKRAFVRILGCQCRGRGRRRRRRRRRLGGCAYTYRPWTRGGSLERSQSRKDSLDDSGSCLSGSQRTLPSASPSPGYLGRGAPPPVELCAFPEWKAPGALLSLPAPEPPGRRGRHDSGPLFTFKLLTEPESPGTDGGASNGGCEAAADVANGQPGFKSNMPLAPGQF
320 non-olfactory GPCRs (Homo sapiens, UniProt P25025), sequence (P25025 whole entry): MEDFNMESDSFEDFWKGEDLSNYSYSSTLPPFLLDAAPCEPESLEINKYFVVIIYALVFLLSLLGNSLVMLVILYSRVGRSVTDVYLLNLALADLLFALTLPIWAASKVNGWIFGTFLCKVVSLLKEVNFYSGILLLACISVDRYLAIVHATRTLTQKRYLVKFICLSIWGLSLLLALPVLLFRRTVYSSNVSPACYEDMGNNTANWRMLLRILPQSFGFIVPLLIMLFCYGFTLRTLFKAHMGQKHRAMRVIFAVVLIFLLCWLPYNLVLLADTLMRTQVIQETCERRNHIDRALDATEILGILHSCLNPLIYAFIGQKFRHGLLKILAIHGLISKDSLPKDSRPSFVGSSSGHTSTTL

With `CCOc1cccc2cc(C(C)NCC3(O)CCCCC3)oc12` (stereo not shown) [O4LE6], the “Fold of Basal” value in assay [1] was 1.166 and 1.131 and 0.9959 and 1.015; in assay [2], 1.636 and 0.8834 and 1.032 and 1.027; in assay [3], 1.013 and 0.8978 and 0.7406 and 0.6452; in assay [4] it was 1.7314 and 1.927 and 1.697 and 1.27.
